Where a name gives a salt, the structure may show the parent alone.
How the values were obtained:
Format in all cases: in vivo
[1] = test system: common lambsquarters (CHEAL); test: Bentazone experiment, photosynthetic activity by fluorescence measurement (Fpc); details: sodium salt of bentazone 60 g ai/ha, adjuvant 0.25%, 1 DAT; Fpc drops from 100 to 0 with destruction of the plant
Experimental: (§1) The sodium salt of bentazone was applied as an aqueous solution with a concentration of 480 g/l. The application rate was 60 g of ai/ha. The mixture was applied to plants of the genus common lambsquarters (CHEAL) and wild buckwheat (POLCO). The adjuvants were added to the application solution at a concentration of 0.25%. The activity was determined by means of fluorescence measurement, where the factor Fpc is a measure of the photosynthetic activity. The destruction of the plant is associated with a drop in the Fpc value, starting from 100, down to 0.

wild buckwheat (POLCO) = test: as above; details: sodium salt of bentazone 60 g ai/ha, adjuvant 0.25%, 1 DAT; Fpc drops from 100 to 0 with destruction of the plant
Experimental: as §1

velvetleaf (ABUTH) = test: Nicosulforon experiment, plant fresh weight; details: nicosulforon 200 g of ai/ha, adjuvant 0.25%, 14 DAT; untreated = 100
Experimental: (§2) Nicosulforon was applied as an aqueous solution with a concentration of 200 g of ai/ha. The adjuvants were added to the application solution at a concentration of 0.25%. The mixture was applied to plants of the genus velvetleaf (ABUTH), common lambsquarter (CHEAL) and common chickweed (STEME). The efficacy was determined by weighing the plant weight (fresh weight in g) 14 days post-application (14 DAT).

common chickweed (STEME) = test: Nicosulforon experiment, plant fresh weight; details: nicosulforon 200 g of ai/ha, adjuvant 0.25%, 14 DAT; untreated = 100
Experimental: as §2

[2] = test system: common lambsquarter (CHEAL); test: Nicosulforon experiment, plant fresh weight; details: nicosulforon 200 g of ai/ha, adjuvant 0.25%, 14 DAT; untreated = 100
Experimental: as §2

Solanum nigrum L. = test: 14C-glyphosate foliar uptake by scintillation measurement; details: 14C-glyphosate-IPA 20 mM (aq), adjuvant 0.25%
Experimental: Determination of the foliar uptake of glyphosate with addition of the copolymers described
^14C-Glyphosate Experiment
^14C-glyphosate-IPA at a concentration of 20 mM (aq) (corresponds to 665 g of ae/ha at a spray volume of 200 l/ha) was treated with 0.25% of the copolymers described. Using this mixture, the foliar uptake into the genus Solanum nigrum L. was determined by means of scintillation measurement. The effect of the copolymer on the uptake of the active ingredient via the leaf surface (foliar uptake) is described in the table which follows: […]

Compound: CC(C)N1C(=O)c2ccccc2NS1(=O)=O [sodium salt of bentazone]
- Fluorescence Fpc CHEAL [1]: 56
- Florescence Fpc POLCO (wild buckwheat (POLCO)): 46

Compound: COc1cc(OC)nc(NC(=O)NS(=O)(=O)c2ncccc2C(=O)N(C)C)n1 [nicosulforon]
- FW (fresh weight) ABUTH (velvetleaf (ABUTH)): 90 g
- FW (fresh weight) STEME (common chickweed (STEME)): 63 g
- FW (fresh weight) CHEAL [2]: 88 g

Compound: O=C(O)CNCP(=O)(O)O [glyphosate, N-phosphonomethylglycine]
- Uptake (% of the amount of glyphosate applied) (Solanum nigrum L.): 48 % of the amount of glyphosate applied

— US20060264330A1, “Agricultural agents containing copolymers” (priority 2003, published 2006)
